{"source": "patent US20080109040A1", "about": "“METHOD OF TREATING ARRHYTHMIAS” (priority 2002, published 2008)", "key": {"late INa": {"biological_target": "late INa (Canis lupus familiaris, UniProt Q865W3)", "sequence (Q865W3 1-2013)": "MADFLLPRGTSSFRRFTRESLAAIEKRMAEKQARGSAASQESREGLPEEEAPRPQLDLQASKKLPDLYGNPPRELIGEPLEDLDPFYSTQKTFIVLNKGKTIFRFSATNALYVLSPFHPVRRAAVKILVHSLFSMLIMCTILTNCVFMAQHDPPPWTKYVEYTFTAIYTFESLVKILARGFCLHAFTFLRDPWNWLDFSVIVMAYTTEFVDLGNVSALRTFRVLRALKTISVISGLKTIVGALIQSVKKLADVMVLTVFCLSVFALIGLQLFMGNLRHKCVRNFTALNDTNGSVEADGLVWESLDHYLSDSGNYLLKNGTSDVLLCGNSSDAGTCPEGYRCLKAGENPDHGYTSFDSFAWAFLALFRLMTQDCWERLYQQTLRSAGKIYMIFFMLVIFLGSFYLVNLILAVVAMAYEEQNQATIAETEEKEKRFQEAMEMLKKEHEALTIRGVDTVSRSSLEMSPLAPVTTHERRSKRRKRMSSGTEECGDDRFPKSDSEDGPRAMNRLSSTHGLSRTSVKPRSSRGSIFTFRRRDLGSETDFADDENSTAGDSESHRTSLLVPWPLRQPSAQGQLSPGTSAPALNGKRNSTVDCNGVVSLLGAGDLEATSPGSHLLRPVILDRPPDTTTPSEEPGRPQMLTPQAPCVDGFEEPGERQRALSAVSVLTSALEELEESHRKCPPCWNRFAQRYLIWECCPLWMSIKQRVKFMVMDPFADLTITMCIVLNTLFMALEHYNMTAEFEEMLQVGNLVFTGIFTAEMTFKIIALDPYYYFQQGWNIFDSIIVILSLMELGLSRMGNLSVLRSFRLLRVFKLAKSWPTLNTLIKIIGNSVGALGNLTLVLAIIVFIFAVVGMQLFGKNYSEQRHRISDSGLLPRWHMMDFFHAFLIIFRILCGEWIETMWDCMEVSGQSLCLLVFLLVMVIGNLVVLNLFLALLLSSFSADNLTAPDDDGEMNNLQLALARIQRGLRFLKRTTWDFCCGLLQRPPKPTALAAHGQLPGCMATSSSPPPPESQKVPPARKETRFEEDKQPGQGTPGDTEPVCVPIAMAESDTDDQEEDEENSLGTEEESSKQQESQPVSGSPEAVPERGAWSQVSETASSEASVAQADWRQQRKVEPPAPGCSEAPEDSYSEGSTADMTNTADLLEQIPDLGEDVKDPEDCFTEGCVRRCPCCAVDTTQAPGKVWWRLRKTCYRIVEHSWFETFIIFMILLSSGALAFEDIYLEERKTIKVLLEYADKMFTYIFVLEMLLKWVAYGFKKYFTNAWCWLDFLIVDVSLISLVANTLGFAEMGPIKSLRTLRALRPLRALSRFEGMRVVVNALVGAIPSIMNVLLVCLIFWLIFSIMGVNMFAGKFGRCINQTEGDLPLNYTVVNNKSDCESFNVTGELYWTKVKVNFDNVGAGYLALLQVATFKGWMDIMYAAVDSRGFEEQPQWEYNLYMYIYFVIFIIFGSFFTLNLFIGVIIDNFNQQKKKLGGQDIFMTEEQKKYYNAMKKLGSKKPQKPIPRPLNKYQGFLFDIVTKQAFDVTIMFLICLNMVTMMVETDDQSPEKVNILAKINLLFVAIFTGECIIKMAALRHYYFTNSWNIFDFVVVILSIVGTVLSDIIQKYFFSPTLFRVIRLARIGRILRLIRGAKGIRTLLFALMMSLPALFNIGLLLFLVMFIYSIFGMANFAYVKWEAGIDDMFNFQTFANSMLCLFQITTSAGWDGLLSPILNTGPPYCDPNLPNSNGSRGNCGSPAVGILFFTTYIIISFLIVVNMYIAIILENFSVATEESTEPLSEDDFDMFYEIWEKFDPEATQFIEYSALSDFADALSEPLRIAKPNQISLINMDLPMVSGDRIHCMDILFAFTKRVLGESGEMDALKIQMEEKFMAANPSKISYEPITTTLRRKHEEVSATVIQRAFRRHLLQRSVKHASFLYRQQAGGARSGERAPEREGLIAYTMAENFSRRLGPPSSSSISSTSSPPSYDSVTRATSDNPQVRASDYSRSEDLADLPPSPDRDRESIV", "assay": "Late INa during action potential voltage clamp in canine midmyocardial myocytes", "format": "cell-based"}, "[1]": {"biological_target": "T1, rapidly activating component of the delayed rectifier current (IKr) (Canis lupus familiaris, UniProt Q9TSZ3)", "T1 construct": "Myocytes were isolated by enzymatic dissociation from a wedge-shaped section of the left ventricular free wall; endogenous in cells; host or cells: isolated canine left ventricular myocytes (epicardial and midmyocardial)", "T1 sequence (Q9TSZ3 1-1158)": "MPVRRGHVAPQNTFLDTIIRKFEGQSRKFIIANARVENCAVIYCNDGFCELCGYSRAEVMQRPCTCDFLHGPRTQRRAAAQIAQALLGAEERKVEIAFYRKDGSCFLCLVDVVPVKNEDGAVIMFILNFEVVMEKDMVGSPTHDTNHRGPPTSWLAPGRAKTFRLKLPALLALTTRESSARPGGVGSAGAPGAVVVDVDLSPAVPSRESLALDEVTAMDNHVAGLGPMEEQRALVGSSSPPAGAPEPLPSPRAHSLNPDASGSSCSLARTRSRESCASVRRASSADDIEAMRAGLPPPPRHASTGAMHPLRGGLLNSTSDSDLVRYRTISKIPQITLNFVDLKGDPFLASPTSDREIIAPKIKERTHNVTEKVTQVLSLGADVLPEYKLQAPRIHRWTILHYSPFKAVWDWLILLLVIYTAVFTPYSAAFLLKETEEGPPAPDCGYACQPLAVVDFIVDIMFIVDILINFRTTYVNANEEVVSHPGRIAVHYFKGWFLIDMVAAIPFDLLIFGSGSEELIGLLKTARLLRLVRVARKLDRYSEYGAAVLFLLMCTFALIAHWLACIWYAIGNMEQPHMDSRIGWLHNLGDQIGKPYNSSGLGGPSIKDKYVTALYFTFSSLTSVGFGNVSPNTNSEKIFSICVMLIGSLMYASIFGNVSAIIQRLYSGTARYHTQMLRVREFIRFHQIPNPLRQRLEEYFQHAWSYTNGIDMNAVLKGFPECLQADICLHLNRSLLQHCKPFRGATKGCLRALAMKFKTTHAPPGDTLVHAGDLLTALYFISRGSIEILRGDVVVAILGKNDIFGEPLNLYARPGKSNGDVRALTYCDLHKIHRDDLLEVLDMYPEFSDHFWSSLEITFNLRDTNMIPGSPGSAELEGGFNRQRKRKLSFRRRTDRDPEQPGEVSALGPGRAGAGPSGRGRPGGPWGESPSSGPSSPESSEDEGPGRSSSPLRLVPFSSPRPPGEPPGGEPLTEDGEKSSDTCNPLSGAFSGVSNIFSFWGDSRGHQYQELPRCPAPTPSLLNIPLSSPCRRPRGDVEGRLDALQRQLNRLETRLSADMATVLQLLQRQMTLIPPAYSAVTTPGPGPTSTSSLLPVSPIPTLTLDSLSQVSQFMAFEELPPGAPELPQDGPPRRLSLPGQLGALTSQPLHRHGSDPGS", "assay": "Whole cell voltage clamp of IKr tail current in isolated canine left ventricular myocytes", "format": "cell-based", "procedure": "Myocytes were isolated by enzymatic dissociation from a wedge-shaped section of the left ventricular free wall supplied by the left circumflex coronary artery. Cells from the epicardial and midmyocardial regions of the left ventricle were used in this study.\nInward rectifier potassium current (IK), slow delayed rectifier potassium current (IKs), and rapid delayed rectifier potassium current (IKr) were recorded at 37° C. using conventional whole cell voltage clamp configuration.\nIK1 was measured using an external solution containing 3 μM ouabain and 5 μM nifedipine to block the sodium-potassium pump and L-type calcium current (ICa,L), respectively. […] 5 μM nifedipine was present in the external solution when IKr was being recorded.\nIsolated myocytes were placed in a temperature controlled 0.5 ml chamber (Medical Systems, Greenvale, N.Y.) on the stage of an inverted microscope and superfused at a rate of 2 ml/min. […]\nIKr was measured as the time-dependent tail current elicited at a potential of −40 mV following a short 250 ms depolarizing pulse to 30 mV. Data are presented as mean ±S.E.M. IK1 was recorded during 900 msec voltage steps applied from a holding potential of −40 mV to test potentials ranging from −100 mV to 0 mV, and was characterized as the 5 msec average of the steady state current at the end of the test pulse."}, "[2]": {"test_system": "transient outward current (Ito)", "assay": "Transient outward current voltage clamp in isolated canine left ventricular myocytes", "format": "cell-based", "conditions": "for Effect on Ito: any of the test voltages"}, "epicardial preparations": {"test_system": "epicardial preparations", "assay": "Action potential studies in isolated canine ventricular epicardial tissues", "parameters": "Amplitude / Overshoot: unit not given beside the values", "conditions": "for Amplitude / Overshoot / RMP: epicardial, BCL = 500 msec", "procedure": "The composition of the Tyrode's solution was (in mM): […] Action potential recordings: Transmembrane potentials were recorded using standard glass microelectrodes filled with 2.7 M KCl (10 to 20 MΩ DC resistance) connected to a high input-impedance amplification system (World Precision Instruments, Sarasota, Fla., USA). […] Data recorded at BCLs of 500 and 2000 msec are presented."}, "[3]": {"conditions": "epicardium, low [K+]o, BCL = 2000 msec"}}, "note": "Where two headings read alike, the source gives them in different places."}
{"smiles": "COc1ccccc1OCC(O)CN1CCN(CC(=O)Nc2c(C)cccc2C)CC1", "note": "(racemic) [ranolazine, N-(2,6-dimethylphenyl)-4-[2-hydroxy-3-(2-methoxyphenoxy)propyl]-1-piperazineacetamide]", "values": [{"measurement": "IC50", "setting": "late INa; BCL 2000 ms, first value (plateau, 20 mV), read-out: Half-inhibition of late INa", "value": 5.9, "unit": "µM"}, {"measurement": "IC50", "setting": "late INa; BCL 2000 ms, second value (−28 mV), read-out: Half-inhibition of late INa", "value": 20.8, "unit": "µM"}, {"measurement": "IC50", "setting": "late INa; basic cycle length 300 ms, read-out: Half-inhibition of INa,late", "value": 11.5, "unit": "µM"}, {"measurement": "IC50", "setting": "late INa; basic cycle length 2000 ms, read-out: Half-inhibition of INa,late", "value": 20.8, "unit": "µM"}, {"measurement": "Block of IKr", "setting": "[1]; ranolazine 50 μM", "value": "almost completely blocked"}, {"measurement": "IC50", "setting": "[1]; tail current at −40 mV after 250 msec pulse to 30 mV, read-out: IC50 for inhibition of IKr tail current", "value": 11.5, "unit": "µM"}, {"measurement": "Effect on Ito", "setting": "[2]; ranolazine 10 μM", "value": "no effect"}, {"measurement": "Effect on Ito", "setting": "[2]; ranolazine 20 μM", "value": "no effect"}, {"measurement": "Reduction of peak Ito", "setting": "[2]; ranolazine 50 μM, 4 min", "value": "less than 10"}, {"measurement": "Reduction of Ito", "setting": "[2]; ranolazine 50 μM, test potential 10 mV", "value": "10±2", "unit": "%"}, {"measurement": "Reduction of Ito", "setting": "[2]; ranolazine 100 μM, test potential 0 mV", "value": "16±3", "unit": "%"}, {"measurement": "Reduction of Ito", "setting": "[2]; ranolazine 100 μM, test potential 10 mV", "value": "17±4", "unit": "%"}, {"measurement": "Effect on APD", "setting": "epicardial preparations; epicardial tissues, BCL 500 msec", "value": "concentration-dependent prolongation"}, {"measurement": "Amplitude", "setting": "epicardial preparations; ranolazine 1.0 μM", "value": "93 ± 5"}, {"measurement": "Overshoot", "setting": "epicardial preparations; ranolazine 1.0 μM", "value": "10 ± 4"}, {"measurement": "RMP", "setting": "epicardial preparations; ranolazine 1.0 μM", "value": "−84 ± 4"}, {"measurement": "Amplitude", "setting": "epicardial preparations; ranolazine 5.0 μM", "value": "101 ± 2"}, {"measurement": "Overshoot", "setting": "epicardial preparations; ranolazine 5.0 μM", "value": "12 ± 3"}, {"measurement": "RMP", "setting": "epicardial preparations; ranolazine 5.0 μM", "value": "−89 ± 1"}, {"measurement": "Amplitude", "setting": "epicardial preparations; ranolazine 10.0 μM", "value": "94 ± 5"}, {"measurement": "Overshoot", "setting": "epicardial preparations; ranolazine 10.0 μM", "value": "8 ± 4"}, {"measurement": "RMP", "setting": "epicardial preparations; ranolazine 10.0 μM", "value": "−88 ± 2"}, {"measurement": "Amplitude", "setting": "epicardial preparations; ranolazine 50.0 μM", "value": "86 ± 12"}, {"measurement": "Overshoot", "setting": "epicardial preparations; ranolazine 50.0 μM", "value": "0 ± 11"}, {"measurement": "RMP", "setting": "epicardial preparations; ranolazine 50.0 μM", "value": "−86 ± 1"}, {"measurement": "Amplitude", "setting": "epicardial preparations; ranolazine 100.0 μM (n=2)", "value": "93 ± 3"}, {"measurement": "Overshoot", "setting": "epicardial preparations; ranolazine 100.0 μM (n=2)", "value": "8 ± 4"}, {"measurement": "RMP", "setting": "epicardial preparations; ranolazine 100.0 μM (n=2)", "value": "−85 ± 3"}, {"measurement": "Effect on APD90", "setting": "epicardial preparations; epicardium, low [K+]o, BCL 500 msec", "value": "prominent concentration-dependent prolongation"}, {"measurement": "Effect on APD50", "setting": "epicardial preparations; [3]", "value": "little change"}, {"measurement": "Effect on APD90", "setting": "epicardial preparations; [3]", "value": "concentration-dependent prolongation"}, {"measurement": "Effect on APD in two of four epicardial preparations", "setting": "epicardial preparations; ranolazine 100.00 μM, BCL 500 msec", "value": "excessive APD prolongation"}]}
